The values below come from paper PMC10492782, “Exploiting the aggregation propensity of beta-lactamases to design inhibitors that induce enzyme misfolding” (Nature Communications, 2023).

Data set [1] concerns E. coli strain lacking TEM (ATCC 25922). Kind of data set: Structured illumination microscopy, inclusion bodies in strain lacking TEM. As to conditions: 12 μM, 120 min, pFTAA stain, SIM. The data set is classed as cell-based, Escherichia coli. From the text: Fig. 5 Induction of aggregation in cells. […] A single representative image is shown. […] A single representative image is shown. C SIM and brightfield images as in A, but for E. coli ATCC strain. […] A single representative image is shown. […] A single representative blot is shown. […] The corrected P-values were 0.6091, 0.0029, 0.0027, <0.0001, and 0.9992, from left to right. […] Statistics exactly as in E, but from 3 independent experiments. The corrected P-values were 0.8753, 0.9796, 0.0001, 0.0003, and 0.0003, from left to right. Source data are provided as a Source Data file.
The bacterial cultures were washed with PBS, and the number of bacteria was adjusted to 10^8–10^9 cells/mL. […] Then, cells were treated with LCO dyes (pFTAA; Amytacker^TM680 or Amytacker^TM545: final concentration of 0.5 µM; Ebba Biotech, Sweden) for at least 90 min. The absorption, emission, and excitation spectra for each dye were measured based on the standard Ebbabiotec advice (ebbabiotech.com).
Bacteria were fixed by adding 2.5% paraformaldehyde and 0.04 % glutaraldehyde (final concentrations) to the culture media, followed by incubation at room temperature for 15 min and 30 min on ice. Bacteria were then washed in PBS and resuspended in GTE buffer (50 mM glucose, 25 mM Tris, and 10 mM EDTA, pH 8.0). Directly preceding microscopic analysis, cells were transferred to a glass slide and covered with a coverslip. […]

In data set [2] the test system is E. coli SHV11. Kind of data set: Checkerboard assay (FICI). In kind it is cell-based, Escherichia coli. As to conditions: strain containing SHV-11, FICI below 0.5 = synergy. As to the method: To quantify the synergy between these four peptides and penicillin G, we performed a so-called checkerboard assay, which allows us to compare the activity of two test compounds co-incubated (here peptide and a beta-lactam antibiotic), to their individual activities in isolation. […] We evaluated the synergy of the peptides with penicillin G in clinical E. coli isolates carrying the TEM (Fig. 3D) or SHV enzymes (Fig. 3E). […] The list of strains included some that harbored only TEM or SHV, but others contained additional Ambler Class A (CTX-M or OXA) or Class B (VIM and NDM) beta-lactamases.
For the analysis of synergy between the peptides and other antibiotics, a checkerboard assay was performed. Based on the MICs of the selected peptides, a checkerboard assay was designed to define their FICIs (Fractional Inhibitory Concentration Index) in combinations against different clinical isolates[53],[54]. Briefly, a total volume of 100 μL of Mueller–Hinton broth was distributed into each well of the 96-well plates. […] FICI is calculated as the sum of the individual fractional inhibitory concentrations (FICs) for each drug (where MIC A and MIC B denote the MIC of each drug alone, and MIC AA+B and MIC BA+B denote the concentrations of A and B in the drug combination). […]

Data set [3] can be described thus: Tolerability, dose escalation. The data set is classed as in vivo, female C57BL/6JAX mice. The settings on record: mice; for Tox beheviour Sub: subcutaneous. Here is the method: We also performed a tolerability study using a dose escalation method by administering the peptide at 2, 5, 10, 15, and 20 mg/kg via different parenteral routes: intravenous (IV), intraperitoneal (IP), and subcutaneous (SC) in female C57BL/6JAX mice, aged 8–10 weeks (Suppl Table 4). […] Vehicle alone (0.9% NaCl) was also administered (IV). After 24 h the animals were sacrificed and the bacterial load in the bladder, kidney, and ureter was quantified by determining the number of colony-forming units (CFU) per mL of tissue extract (Fig. 7E–G). […]

In data set [4] the test system is HT-1376. The settings on record: 24 h, 400 to 6.25 µg/mL. Here is the method:
(§1) The Cell Titer Blue assay was performed to evaluate the cell viability according to the instructions of the manufacturer (Promega, USA). The peptide treatments were done in DMEM medium without serum. Briefly, cells were seeded to approximately 20,000 mammalian cells per well in a 96-well flat-bottom plate (BD Biosciences 353075) and incubated at 37 °C with 5% CO2 and 90% humidity. Peptides were diluted in cell medium, and cells were treated for 24 h. 20 μL of the CellTiter Blue reagent was added to each well and the plate was incubated for 1 h at 37 °C. The fluorescence was measured at 590 nm by exciting at 560 nm with a ClarioStar plate reader (BMG Labtech, Germany).
(§2) Khodaparast et al Supplementary data
(§3) Supplementary Figure 12: Cell viability assays on mammalian cells using the CellTiter Blue assay, plotted as relative values compared to vehicle. The colours of the bars show the concentrations indicated in the legends in µg/mL, ranging from 400 to 6.25 µg/mL. The dots indicate individual measurements on independent wells of cells (4 repeats), the bars

In data set [5] the test system is SH-SY5Y. The settings on record: 24 h, 400 to 6.25 µg/mL. As to the method: as §1, §2, §3
The test system of data set [6] is primary mouse cortical neurons. As to conditions: 24 h, 400 to 6.25 µg/mL. As to the method:
as §1, §2, §3

Data set [7] concerns HEK293. As to conditions: 24 h, 400 to 6.25 µg/mL. As to the method: as §1, §2, §3
For data set [8], the system named is NCI-H441. The settings on record: 24 h, 400 to 12.5 µg/mL. As to the method: as §1, §2, §3

For the substance Ac-RLTAFLHNRRPRLTAFLRQRR-NH2 [TEM3.2], the “inclusion body formation (in words)” value in data set [1] was “only very limited inclusion body formation”. Further, the “synergy with penicillin G (in words)” value in data set [2] was “showed synergy in both strains”. The “Tox beheviour IP” value in data set [3] (2 mg/Kg), in data set [3] (5 mg/Kg), in data set [3] (10 mg/Kg), in data set [3] (15 mg/Kg) and in data set [3] (20 mg/Kg) was “no sign of tox” throughout. Also, the “Tox beheviour IV” value in data set [3] (2 mg/Kg), in data set [3] (5 mg/Kg), in data set [3] (10 mg/Kg), in data set [3] (15 mg/Kg) and in data set [3] (20 mg/Kg) was “no sign of tox” throughout. Moreover, the “Tox beheviour Sub” value in data set [3] (2 mg/Kg), in data set [3] (5 mg/Kg), in data set [3] (10 mg/Kg), in data set [3] (15 mg/Kg) and in data set [3] (20 mg/Kg) was “no sign of tox” in each case. Moreover, the “cytotoxicity, Cell Titer Blue (in words)” value in data set [4], in data set [5], in data set [6], in data set [7] and in data set [8] was “not cytotoxic” in each case.
